Values of other authors as cited in publication PMC8313041 (Heterocyclic communications, 2015).

Tests used:
[1] = test system: HIV-1
[2] = test system: human leukemic T-cell lines

## Nc1ncnc2c1ncn2[C@@H]1O[C@H](CO)[C@@H](F)[C@@H]1F [Compound 2, 9-(2′,3′-dideoxy-2′,3′-difluoro-β-D-arabinofuranosyl)adenine]
[1]
  in vitro potency against HIV-1 compared with lodenosine: more potent in vitro against HIV-1 than lodenosine 1

## Nc1ncnc2c1ncn2[C@@H]1O[C@H](CO)C[C@@H]1F [lodenosine, 2′-β-fluoro-2′,3′-dideoxyadenosine]
[1]
  in vitro activity against HIV-1: displays in vitro activity against HIV-1

## Nc1nc2c(ncn2[C@@H]2O[C@H](CO)[C@@H](O)[C@@H]2F)c(=O)[nH]1 [Compound 3, 9-(2′-deoxy-2′-fluoro-β-D-arabinofuranosyl)guanine]
[2]
  activity against human leukemic T-cell lines: displays activity against human leukemic T-cell lines
